In the assay the target is T1, SIRT1 (Homo sapiens, UniProt Q96EB6).
T1 sequence (Q96EB6 1-747): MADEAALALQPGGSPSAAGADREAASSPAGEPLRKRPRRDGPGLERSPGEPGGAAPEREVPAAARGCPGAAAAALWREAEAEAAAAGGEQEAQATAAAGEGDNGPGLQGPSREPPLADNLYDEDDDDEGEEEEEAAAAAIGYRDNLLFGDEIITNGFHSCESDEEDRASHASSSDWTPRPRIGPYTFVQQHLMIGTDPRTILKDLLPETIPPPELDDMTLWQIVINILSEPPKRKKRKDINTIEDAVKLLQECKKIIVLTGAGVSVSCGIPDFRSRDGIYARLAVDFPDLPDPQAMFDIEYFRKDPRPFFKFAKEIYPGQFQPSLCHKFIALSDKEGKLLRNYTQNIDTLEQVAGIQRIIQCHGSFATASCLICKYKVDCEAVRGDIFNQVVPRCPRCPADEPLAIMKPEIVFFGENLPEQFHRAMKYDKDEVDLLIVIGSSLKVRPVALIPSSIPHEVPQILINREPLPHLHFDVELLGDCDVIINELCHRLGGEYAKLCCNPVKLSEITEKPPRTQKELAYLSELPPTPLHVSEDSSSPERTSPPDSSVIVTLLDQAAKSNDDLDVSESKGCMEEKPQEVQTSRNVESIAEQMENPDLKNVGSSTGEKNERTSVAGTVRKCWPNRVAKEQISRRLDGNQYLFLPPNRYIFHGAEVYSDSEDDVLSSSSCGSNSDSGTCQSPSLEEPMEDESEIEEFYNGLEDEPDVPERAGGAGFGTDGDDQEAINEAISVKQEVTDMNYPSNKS
Put plainly: Mass spectrometry based SIRT1 deacetylase activation assay (acetylated p53-derived peptide substrate). The assay is classed as biochemical. The following applies: 0.5 μM peptide substrate, 120 μM βNAD+, 10 nM SIRT1, 25 minutes at 25° C.
On to `O=C(Nc1nc(CN2CCOCC2)cs1)c1cccc2[nH]c(-c3ccc(Cl)cc3C(F)F)nc12` [Compound 849], for which the EC1.5 result is listed as “A (EC1.5<1.0 uM)” and the “Fold Act. (percent maximum fold activation)” value is “A (Fold activation >200%)”.
In the same order, the values of `O=C(Nc1cccc(CN2CCOCC2)n1)c1cccc2[nH]c(-c3cccnc3)nc12` [Compound 850] are “A (EC1.5<1.0 uM)” and “A (Fold activation >200%)”.
Regarding `O=C(Nc1cccc(CN2CCOCC2)n1)c1cccc2[nH]c(-c3cccc(F)c3)nc12` [Compound 851], the EC1.5 entry is given as “A (EC1.5<1.0 uM)” and the “Fold Act. (percent maximum fold activation)” value is reported as “A (Fold activation >200%)”.
Take `O=C(Nc1cccc(CN2CCOCC2)n1)c1cccc2[nH]c(-c3cc(F)cc(F)c3)nc12` [Compound 852]: the EC1.5 result is listed as “A (EC1.5<1.0 uM)” and the “Fold Act. (percent maximum fold activation)” value was “A (Fold activation >200%)”.
In the same order, the values of `O=C(Nc1cccc(CN2CCOCC2)n1)c1cccc2[nH]c(-c3cccc(Cl)c3)nc12` [Compound 853] are “A (EC1.5<1.0 uM)” and “A (Fold activation >200%)”.
On to `O=C(Nc1cccc(CN2CCOCC2)n1)c1cccc2[nH]c(-c3ccccc3F)nc12` [Compound 854], for which the EC1.5 entry was “A (EC1.5<1.0 uM)” and the “Fold Act. (percent maximum fold activation)” value is “A (Fold activation >200%)”.
Turning to `O=C(Nc1cccc(CN2CCOCC2)n1)c1cccc2[nH]c(-c3cc(F)ccc3F)nc12` [Compound 855], the EC1.5 entry is listed as “A (EC1.5<1.0 uM)” and the “Fold Act. (percent maximum fold activation)” value is listed as “A (Fold activation >200%)”.
Taken in the same sequence, the figures for `O=C(Nc1cccc(N2CCOCC2)n1)c1cccc2[nH]c(-c3ccc(Cl)cc3C(F)(F)F)nc12` [Compound 868, 2-(4-chloro-2-(trifluoromethyl)phenyl)-N-(6-morpholinopyridin-2-yl)-1H-benzo[d]imidazole-4-carboxamide] were “A (EC1.5<1.0 uM)” and “A (Fold activation >200%)”.
In the same order, the values of `O=C(Nc1ccc(CN2CCCC2)cc1)c1cccc2[nH]c(-c3ccc(CN4CCCC4)cc3C(F)(F)F)nc12` [Compound 869, 2-(4-(pyrrolidin-1-ylmethyl)-2-(trifluoromethyl)phenyl)-N-(4-(pyrrolidin-1-ylmethyl)phenyl)-1H-benzo[d]imidazole-4-carboxamide] are “A (EC1.5<1.0 uM)” and “A (Fold activation >200%)”.
On to `Cc1ccc(NC(=O)c2cccc3[nH]c(-c4ccc(CN5CCCC5)cc4C(F)(F)F)nc23)cc1` [Compound 870, 2-(4-(pyrrolidin-1-ylmethyl)-2-(trifluoromethyl)phenyl)-N-p-tolyl-1H-benzo[d]imidazole-4-carboxamide], for which the EC1.5 entry is recorded as “A (EC1.5<1.0 uM)” and the “Fold Act. (percent maximum fold activation)” value is on record as “A (Fold activation >200%)”.
In the same order, the values of `O=C(Nc1nccs1)c1cccc2[nH]c(-c3cc(CN4CCCC4)ccc3C(F)(F)F)nc12` [Compound 871, 2-(5-(pyrrolidin-1-ylmethyl)-2-(trifluoromethyl)phenyl)-N-(thiazol-2-yl)-1H-benzo[d]imidazole-4-carboxamide] are “B (EC1.5 1-25 uM)” and “A (Fold activation >200%)”.
In the same order, the values of `O=C(Nc1ccccn1)c1cccc2[nH]c(-c3cc(CN4CCCC4)ccc3C(F)(F)F)nc12` [Compound 872, N-(pyridin-2-yl)-2-(5-(pyrrolidin-1-ylmethyl)-2-(trifluoromethyl)phenyl)-1H-benzo[d]imidazole-4-carboxamide] are “A (EC1.5<1.0 uM)” and “A (Fold activation >200%)”.
In the same order, the values of `O=C(Nc1ccc(CN2CCCC2)cc1)c1cccc2[nH]c(-c3cc(CN4CCCC4)ccc3C(F)(F)F)nc12` [Compound 873, 2-(5-(pyrrolidin-1-ylmethyl)-2-(trifluoromethyl)phenyl)-N-(4-(pyrrolidin-1-ylmethyl)phenyl)-1H-benzo[d]imidazole-4-carboxamide] are “A (EC1.5<1.0 uM)” and “A (Fold activation >200%)”.

These data come from US8846947B2, “Benzimidazoles and related analogs as sirtuin modulators” (GlaxoSmithKline LLC, priority 2008, dated 2014).
